Measured values from US8937063B2 (Trustees of Tufts College, priority 2010, dated 2015).

Tests used:
[1] = test system: dogs; test: Clinical symptoms of flushing over 28 days; format: in vivo
Source text: (§1) Additionally, clinical symptoms of “flushing” were not observed over 28 days in rats or dogs.

[2] = test system: rats; test: Clinical symptoms of flushing over 28 days; format: in vivo
Source text: as §1

[3] = test system: CETP mRNA; test: qPCR of liver and adipose mRNA in HF/HS hamsters; format: in vivo, hamster; details: ARI-001 2240 mg/kg oral 18 days; relative to mean of vehicle
Source text: (§2) Hamster livers and adipose were preared in manners similar to that described for ARI-001 concentration determination. Briefly, to prepare for analysis, a sample of liver was excised from the frozen mass, weighed, and homogenized with a tissue grinder followed by sonication in buffer. The solid materials were then removed by centrifugation. The resulting lysate was used in qPCR analysis to quantify the specific mRNA measured (vide infra) using primers designed for the specific sequences of interest. All mRNA quantities were normalized to vehicle-treated animal, and mRNA levels were expressed as a fold increase or decrease relative to vehicle-treated. […] During grinding, liquid nitrogen was added to ensure the sample of adipose remained solid. The ground sample was transferred to a tared tube to weigh total sample. This ground sample was treated with buffer and prepared for qPCR to quantify specific mRNA quantities.

[4] = Multiple administration (30 days) pharmacokinetic study in wild type mice; format: in vivo, C57BL/6 mice; details: 996, 1493, 2240, 3360 mg/kg oral daily 30 days
Protocol: Wild type C57BL/6 mice were dosed with ARI-001 in solution via oral gavage daily for 30 consecutive days. Over the course of five 24-hour periods, blood was collected, and the resultant plasma was analyzed for concentrations of ARI-001. Four doses were used: 996 mg/kg, 1493 mg/kg, 2240 mg/kg, and 3360 mg/kg. […] However, these values were time-independent, as there was no trend observed between these parameters and days of administration. See FIGS. 15A-15D and FIGS. 16A-16B.

[5] = Single-dose pharmacokinetic study PO/IP in wild type mice; format: in vivo, C57BL/6 mice; details: for AUC / Cmax / Tmax / half-life: C57BL/6, mouse plasma
Protocol: Plasma from the 19 hamsters dosed with ARI-001 in the above described 18-day study was analyzed for concentrations of ARI-001. Concentrations were determined for these samples, which were collected 24 hours after the final dose was administered. Briefly, plasma drug concentrations for the non-GLP pharmacokinetic experiments were determined by LC-MS using an Applied Biosystems 4000Qtrap spectrometer with electrospray ionization. Samples were prepared for analysis by precipitation of plasma proteins with cold methanol. HPLC of the samples was done with an Agilent Eclipse C18 column and a methanol/water gradient containing 0.1% formic acid and 5 mM ammonium acetate. ARI-001 was detected using multiple reaction monitoring (MRM) in the positive ion mode. For quantitation, a standard curve was measured by addition of known amounts of ARI-001 to plasma from untreated animals and preparing in a manner identical to the samples from treated animals. All plasma samples were spiked with 10 ng/mL of isotope-enriched ARI-001 which served as an internal standard for the LC-MS measurements. All compound concentrations are reported in μM. For correlation analysis, plasma concentrations of ARI-001 in a given animal were paired with that same animal's lipid parameter. […] These correlations are graphed in FIG. 6 and FIG. 7. Pearson r values were determined using all data points, as was the two-tailed P-value for the data set.
Wild type C57BL/6 mice were dosed with a single administration of ARI-001 in solution either via oral gavage (PO) or via intraperitoneal injection (IP). Blood samples were then collected at various time points over a 24-hour period; plasma was then analyzed for concentrations of ARI-001 as described earlier. ARI-001 was administered at either a dose of 2240 mg/kg as a single bolus via oral gavage, or a dose of 448 mg/kg as a single bolus via intraperitoneal injection.

[6] = test system: ABCA1 mRNA; test: qPCR of liver mRNA in HF/HS hamsters; format: in vivo, hamster; details: ARI-001 2240 mg/kg oral 18 days; relative to mean of vehicle
Source text: as §2

[7] = test system: ApoAI mRNA; test: qPCR of liver mRNA in HF/HS hamsters; format: in vivo, hamster; details: ARI-001 2240 mg/kg oral 18 days; relative to mean of vehicle
Source text: as §2

[8] = test system: SR-BI mRNA; test: qPCR of liver mRNA in HF/HS hamsters; format: in vivo, hamster; details: ARI-001 2240 mg/kg oral 18 days; relative to mean of vehicle
Source text: as §2

[9] = test system: high fat+fructose (HF/HS) diet hamsters; test: FPLC cholesterol subpopulation traces of pooled hamster plasma; format: in vivo, male Golden Syrian hamsters; details: ARI-001 2240 mg/kg 18 days, vs vehicle
Protocol: Fast protein liquid chromatography (FPLC) was used to separate the different cholesterol subpopulations from samples of hamster plasma. Briefly, plasma from each animal within a given cohort was pooled together and applied to an AKTA liquid handling system with a Superose 6 10/300 GL column (product #14-5172-01, GE Life Sciences). 250 μL of sample was applied to the injection system, diluted with 5 mL of buffer (100 mM Na2HPO4, 100 mM NaCl, pH 7.5), loaded onto the column, and eluted with 23.5 mL of buffer at a flow rate of 1.0 mL/min, into fractions of size 0.24 mL. Each fraction was individually measured for cholesterol concentration using the total cholesterol kit from Wako as described above with the following modification: sample volume was increased to 30 μL and the reagent volume was decreased to 60 μL.
FPLC traces produce continuous curves with three distinct peaks, representing each of the cholesterol subpopultions: VLDL, LDL, and HDL. Because the column used in this experiment is a size-exclusion column, the largest particles appear first, while the smallest appear last. […]
The measured HDL values were borderline significant (p=0.06) between the 2240 mg/kg ARI-001 group and vehicle. There was a considerable increase in significance when considering the calculated HDL/TC values. […]

[10] = PO, 2240 mg/kg single bolus oral gavage

clinical symptoms of flushing [1]: not observed
clinical symptoms of flushing [2]: not observed
Cmax levels and AUC as a function of days of administration [4]: time-independent
Cmax levels and total 24-hour exposure (AUC) as a function of dose [4]: dose-dependent
AUC ([5]; IP, 448 mg/kg single bolus): 439 µM·h
Cmax ([5]; IP, 448 mg/kg single bolus): 450 µM
Tmax ([5]; IP, 448 mg/kg single bolus): 15 min
half-life ([5]; IP, 448 mg/kg single bolus): 30 min
AUC [5, 10]: 1100 µM·h
Cmax [5, 10]: 289 µM
Tmax [5, 10]: 30 min
half-life [5, 10]: 90 min
remaining plasma concentration at the 24 hour timepoint ([5]; single dose PO 2240 mg/kg or IP 448 mg/kg): undetectable
Compound: O=C(O)c1ccc(CCN2CCOCC2)nc1 [ARI-001]
Adipose CETP mRNA per mg tissue [3]: 1.72 ± 0.70 fold-change
Liver CETP mRNA per mg tissue [3]: 2.05 ± 0.38 fold-change
Liver ABCA1 mRNA per mg tissue [6]: 1.54 ± 0.48 fold-change
Liver ApoAI mRNA per mg tissue [7]: 1.72 ± 0.24 fold-change
Liver SR-BI mRNA per mg tissue [8]: 1.50 ± 0.33 fold-change
FPLC HDL curve [9]: notably larger
FPLC VLDL and LDL peaks [9]: considerably decreased compared to vehicle
